Test results reported in patent US7115296B2, “N-alkylaspartyl amide derivative and sweetening agent” (Ajinomoto Co., Inc., priority 2001, dated 2006).
Read-outs that look alike come from different tables or passages of the source. Peptide text beside a SMILES is read from it.

Legend:
[1] = sensory (organoleptic) test of sweetening potency
[2] = times that of sucrose; reported in WO 94/11391; cited from earlier work
physchem = conditions: buffer, pH 3
[3] = times the sweetness of sugar, sensory test
[4] = values compared to sweetening potency of a 4% aqueous solution of sucrose

SMILES: COc1ccc(CCCN[C@@H](CC(=O)O)C(=O)N[C@H](C)C(O)CC2CCCCC2)cc1O (mixture of isomers) [compound 12, N-[3-(3-hydroxy-4-methoxyphenyl)propyl]-α-L-aspartyl N-(1R,2RS)-1-methyl-2-hydroxy-3-cyclohexylpropyl amide]
- Sweetening potency [1, 3]: 4000 times
- Sweetening potency [1, 4]: 4000

SMILES: COC(=O)[C@H](Cc1ccccc1)NC(=O)[C@H](CC(=O)O)NCCC(C)(C)C [N-[N-(3,3-dimethylbutyl)-L-α-aspartyl]-L-phenylalanine 1-methyl ester]
- Sweetening potency [2]: 10000 times

SMILES: COC(=O)[C@H](Cc1ccccc1)NC(=O)[C@@H](N)CC(=O)O [aspartame] (H-Asp-Phe-OMe)
- half-life (physchem): ~30 h

SMILES: CC[C@@H](C[C@H](O)[C@@H](C)NC(=O)[C@H](CC(=O)O)NCCCc1ccc(OC)c(O)c1)c1ccccc1 [compound 1, N-[3-(3-hydroxy-4-methoxyphenyl)propyl]-α-L-aspartyl N-(1R,2S,4S)-1-methyl-2-hydroxy-4-phenylhexyl amide]
- Sweetening potency [1, 3]: approximately 15000 times
- Sweetening potency ([1]; times the sweetness of sugar, sensory test, listed as Compound No.1): 15000 times
- Sweetening potency [1, 4]: 15000

SMILES: CC[C@@H](C[C@H](O)[C@@H](C)NC(=O)[C@H](CC(=O)O)NCCCc1ccc(O)c(OC)c1)c1ccccc1 [compound 2, N-[3-(3-methoxy-4-hydroxyphenyl)propyl]-α-L-aspartyl N-(1R,2S,4S)-1-methyl-2-hydroxy-4-phenylhexyl amide]
- Sweetening potency [1, 3]: 10000 times
- Sweetening potency [1, 4]: 10000

SMILES: CC[C@@H](C[C@H](O)[C@@H](C)NC(=O)[C@H](CC(=O)O)NCCCc1ccc(OC)cc1O)c1ccccc1 [compound 3, N-[3-(2-hydroxy-4-methoxyphenyl)propyl]-α-L-aspartyl N-(1R,2S,4S)-1-methyl-2-hydroxy-4-phenylhexyl amide]
- Sweetening potency [1, 3]: 6000 times
- Sweetening potency [1, 4]: 6000

SMILES: CC[C@@H](C[C@H](O)[C@@H](C)NC(=O)[C@H](CC(=O)O)NCCCc1ccc(O)cc1O)c1ccccc1 [compound 4, N-[3-(2,4-dihydroxyphenyl)propyl]-α-L-aspartyl N-(1R,2S,4S)-1-methyl-2-hydroxy-4-phenylhexyl amide]
- Sweetening potency [1, 3]: 10000 times
- Sweetening potency [1, 4]: 10000

SMILES: CC[C@@H](C[C@H](O)[C@@H](C)NC(=O)[C@H](CC(=O)O)NCCCc1ccc(C)c(O)c1)c1ccccc1 [compound 5, N-[3-(3-hydroxy-4-methylphenyl)propyl]-α-L-aspartyl N-(1R,2S,4S)-1-methyl-2-hydroxy-4-phenylhexyl amide]
- Sweetening potency [1, 3]: 6000 times
- Sweetening potency [1, 4]: 6000

SMILES: CC[C@@H](C[C@H](O)[C@@H](C)NC(=O)[C@H](CC(=O)O)NCCCc1ccc(O)c(C)c1)c1ccccc1 [compound 6, N-[3-(3-methyl-4-hydroxyphenyl)propyl]-α-L-aspartyl N-(1R,2S,4S)-1-methyl-2-hydroxy-4-phenylhexyl amide]
- Sweetening potency [1, 3]: 4000 times
- Sweetening potency [1, 4]: 4000

SMILES: CC[C@@H](C[C@H](O)[C@@H](C)NC(=O)[C@H](CC(=O)O)NCCCc1ccc(O)cc1)c1ccccc1 [compound 7, N-[3-(4-hydroxyphenyl)propyl]-α-L-aspartyl N-(1R,2S,4S)-1-methyl-2-hydroxy-4-phenylhexyl amide]
- Sweetening potency [1, 3]: 6000 times
- Sweetening potency [1, 4]: 6000

SMILES: CC[C@@H](C[C@H](O)[C@@H](C)NC(=O)[C@H](CC(=O)O)NCCCc1ccc(OC)cc1)c1ccccc1 [compound 8, N-[3-(4-methoxyphenyl)propyl]-α-L-aspartyl N-(1R,2S,4S)-1-methyl-2-hydroxy-4-phenylhexyl amide]
- Sweetening potency [1, 3]: 3000 times
- Sweetening potency [1, 4]: 3000

SMILES: CC[C@@H](C[C@H](O)[C@@H](C)NC(=O)[C@H](CC(=O)O)NCCC(C)(C)c1ccc(OC)c(O)c1)c1ccccc1 [compound 9, N-[3-methyl-3-(3-hydroxy-4-methoxyphenyl)butyl]-α-L-aspartyl N-(1R,2S,4S)-1-methyl-2-hydroxy-4-phenylhexyl amide]
- Sweetening potency [1, 3]: approximately 15000 times
- Sweetening potency ([1]; times the sweetness of sugar, sensory test, listed as Compound No.9): 15000 times
- Sweetening potency [1, 4]: 15000

SMILES: CC[C@@H](C[C@H](O)[C@@H](C)NC(=O)[C@H](CC(=O)O)NCCC(C)(C)c1ccc(O)c(C)c1)c1ccccc1 [compound 10, N-[3-methyl-3-(3-methyl-4-hydroxyphenyl)butyl]-α-L-aspartyl N-(1R,2S,4S)-1-methyl-2-hydroxy-4-phenylhexyl amide]
- Sweetening potency [1, 3]: 15000 times
- Sweetening potency [1, 4]: 15000

SMILES: CC[C@H](C[C@H](O)[C@@H](C)NC(=O)[C@H](CC(=O)O)NCCCc1ccc(OC)c(O)c1)c1ccccc1 [compound 11, N-[3-(3-hydroxy-4-methoxyphenyl)propyl]-α-L-aspartyl N-(1R,2S,4R)-1-methyl-2-hydroxy-4-phenylhexyl amide]
- Sweetening potency [1, 3]: 4000 times
- Sweetening potency [1, 4]: 4000

SMILES: COc1ccc(CCCN[C@@H](CC(=O)O)C(=O)N[C@H](C)[C@H](O)CC2CCCCC2)cc1O [compound 13, N-[3-(3-hydroxy-4-methoxyphenyl)propyl]-α-L-aspartyl N-(1R,2R)-1-methyl-2-hydroxy-3-cyclohexylpropyl amide]
- Sweetening potency [1, 3]: 5000 times
- Sweetening potency [1, 4]: 5000

SMILES: COc1ccc(C(C)(C)CCN[C@@H](CC(=O)O)C(=O)N[C@H](C)[C@H](O)CC2CCCCC2)cc1O [compound 14, N-[3-methyl-3-(3-hydroxy-4-methoxyphenyl)butyl]-α-L-aspartyl N-(1R,2R)-1-methyl-2-hydroxy-3-cyclohexylpropyl amide]
- Sweetening potency [1, 3]: 5000 times
- Sweetening potency [1, 4]: 5000

SMILES: CC[C@@H](C[C@H](O)[C@@H](C)NC(=O)[C@H](CC(=O)O)NCCC(C)(C)CCO)c1ccccc1 [compound 15, N-(3,3-dimethyl-5-hydroxypentyl)-α-L-aspartyl N-(1R,2S,4S)-1-methyl-2-hydroxy-4-phenylhexyl amide]
- Sweetening potency [1, 3]: 6500 times
- Sweetening potency [1, 4]: 6500

SMILES: CC[C@@H](C[C@H](O)[C@@H](C)NC(=O)[C@H](CC(=O)O)NCCC(C)(C)CCCO)c1ccccc1 [compound 16, N-(3,3-dimethyl-6-hydroxyhexyl)-α-L-aspartyl N-(1R,2S,4S)-1-methyl-2-hydroxy-4-phenylhexyl amide]
- Sweetening potency [1, 3]: 4500 times
- Sweetening potency [1, 4]: 4500
